How the values were obtained:
ABC2 = biological target: T1, ABC2 (Yarrowia lipolytica, UniProt Q6CBB8); assay: intracellular alkane level by GC, S. cerevisiae expressing transporter vs empty plasmid; format: cell-based; details: 48 h, whole-cell efflux, indirect
T1 construct: gene YALI0_C20265g; full-length, C-terminal 6xHis tag, pYES2 (GAL1) in S. cerevisiae BY4741; 165 kDa on western blot; plasma membrane
T1 sequence (Q6CBB8 1-1469): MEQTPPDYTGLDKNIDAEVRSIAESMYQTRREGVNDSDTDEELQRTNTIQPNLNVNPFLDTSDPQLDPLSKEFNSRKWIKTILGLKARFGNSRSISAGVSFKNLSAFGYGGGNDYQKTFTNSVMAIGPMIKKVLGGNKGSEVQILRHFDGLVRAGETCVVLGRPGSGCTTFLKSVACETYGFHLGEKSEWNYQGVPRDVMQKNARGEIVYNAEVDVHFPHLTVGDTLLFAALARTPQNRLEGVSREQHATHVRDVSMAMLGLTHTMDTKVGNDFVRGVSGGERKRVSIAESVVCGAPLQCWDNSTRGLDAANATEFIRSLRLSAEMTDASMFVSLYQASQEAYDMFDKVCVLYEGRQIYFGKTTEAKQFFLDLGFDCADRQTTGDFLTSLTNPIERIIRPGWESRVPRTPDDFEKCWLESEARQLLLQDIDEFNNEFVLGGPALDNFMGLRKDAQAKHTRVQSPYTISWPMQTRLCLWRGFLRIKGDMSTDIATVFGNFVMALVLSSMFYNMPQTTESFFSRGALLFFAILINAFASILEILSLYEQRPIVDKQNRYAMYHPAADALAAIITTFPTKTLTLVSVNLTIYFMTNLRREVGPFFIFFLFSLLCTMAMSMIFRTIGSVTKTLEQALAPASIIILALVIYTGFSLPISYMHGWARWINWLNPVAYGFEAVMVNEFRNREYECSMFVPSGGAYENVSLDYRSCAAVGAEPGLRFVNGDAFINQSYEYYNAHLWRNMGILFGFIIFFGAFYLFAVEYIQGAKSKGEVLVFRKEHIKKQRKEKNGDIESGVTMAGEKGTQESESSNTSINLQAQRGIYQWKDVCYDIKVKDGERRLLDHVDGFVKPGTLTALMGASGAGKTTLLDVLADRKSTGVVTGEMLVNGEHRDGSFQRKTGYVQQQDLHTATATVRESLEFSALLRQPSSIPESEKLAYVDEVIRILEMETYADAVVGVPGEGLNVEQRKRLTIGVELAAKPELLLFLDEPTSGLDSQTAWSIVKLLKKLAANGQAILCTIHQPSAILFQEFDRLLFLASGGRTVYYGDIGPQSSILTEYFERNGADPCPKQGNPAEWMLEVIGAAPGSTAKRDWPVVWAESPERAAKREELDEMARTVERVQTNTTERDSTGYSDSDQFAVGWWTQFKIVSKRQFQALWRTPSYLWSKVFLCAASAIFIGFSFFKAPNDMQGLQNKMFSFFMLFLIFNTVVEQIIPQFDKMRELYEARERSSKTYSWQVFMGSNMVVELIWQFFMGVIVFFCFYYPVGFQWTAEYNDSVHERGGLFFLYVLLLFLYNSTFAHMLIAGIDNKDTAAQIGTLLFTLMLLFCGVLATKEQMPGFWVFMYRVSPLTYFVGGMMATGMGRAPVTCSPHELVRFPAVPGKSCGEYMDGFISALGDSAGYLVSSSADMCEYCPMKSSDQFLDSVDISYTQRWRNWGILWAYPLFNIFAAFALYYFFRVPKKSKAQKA

ABC3 = biological target: T2, ABC3 (Yarrowia lipolytica, UniProt Q6CFY4); assay: as above; format: cell-based; details: 48 h, whole-cell efflux, indirect
T2 construct: gene YALI0_B02544g; full-length, C-terminal 6xHis tag, pYES2 (GAL1) in S. cerevisiae BY4741; 167 kDa on western blot; plasma membrane
T2 sequence (Q6CFY4 1-1485): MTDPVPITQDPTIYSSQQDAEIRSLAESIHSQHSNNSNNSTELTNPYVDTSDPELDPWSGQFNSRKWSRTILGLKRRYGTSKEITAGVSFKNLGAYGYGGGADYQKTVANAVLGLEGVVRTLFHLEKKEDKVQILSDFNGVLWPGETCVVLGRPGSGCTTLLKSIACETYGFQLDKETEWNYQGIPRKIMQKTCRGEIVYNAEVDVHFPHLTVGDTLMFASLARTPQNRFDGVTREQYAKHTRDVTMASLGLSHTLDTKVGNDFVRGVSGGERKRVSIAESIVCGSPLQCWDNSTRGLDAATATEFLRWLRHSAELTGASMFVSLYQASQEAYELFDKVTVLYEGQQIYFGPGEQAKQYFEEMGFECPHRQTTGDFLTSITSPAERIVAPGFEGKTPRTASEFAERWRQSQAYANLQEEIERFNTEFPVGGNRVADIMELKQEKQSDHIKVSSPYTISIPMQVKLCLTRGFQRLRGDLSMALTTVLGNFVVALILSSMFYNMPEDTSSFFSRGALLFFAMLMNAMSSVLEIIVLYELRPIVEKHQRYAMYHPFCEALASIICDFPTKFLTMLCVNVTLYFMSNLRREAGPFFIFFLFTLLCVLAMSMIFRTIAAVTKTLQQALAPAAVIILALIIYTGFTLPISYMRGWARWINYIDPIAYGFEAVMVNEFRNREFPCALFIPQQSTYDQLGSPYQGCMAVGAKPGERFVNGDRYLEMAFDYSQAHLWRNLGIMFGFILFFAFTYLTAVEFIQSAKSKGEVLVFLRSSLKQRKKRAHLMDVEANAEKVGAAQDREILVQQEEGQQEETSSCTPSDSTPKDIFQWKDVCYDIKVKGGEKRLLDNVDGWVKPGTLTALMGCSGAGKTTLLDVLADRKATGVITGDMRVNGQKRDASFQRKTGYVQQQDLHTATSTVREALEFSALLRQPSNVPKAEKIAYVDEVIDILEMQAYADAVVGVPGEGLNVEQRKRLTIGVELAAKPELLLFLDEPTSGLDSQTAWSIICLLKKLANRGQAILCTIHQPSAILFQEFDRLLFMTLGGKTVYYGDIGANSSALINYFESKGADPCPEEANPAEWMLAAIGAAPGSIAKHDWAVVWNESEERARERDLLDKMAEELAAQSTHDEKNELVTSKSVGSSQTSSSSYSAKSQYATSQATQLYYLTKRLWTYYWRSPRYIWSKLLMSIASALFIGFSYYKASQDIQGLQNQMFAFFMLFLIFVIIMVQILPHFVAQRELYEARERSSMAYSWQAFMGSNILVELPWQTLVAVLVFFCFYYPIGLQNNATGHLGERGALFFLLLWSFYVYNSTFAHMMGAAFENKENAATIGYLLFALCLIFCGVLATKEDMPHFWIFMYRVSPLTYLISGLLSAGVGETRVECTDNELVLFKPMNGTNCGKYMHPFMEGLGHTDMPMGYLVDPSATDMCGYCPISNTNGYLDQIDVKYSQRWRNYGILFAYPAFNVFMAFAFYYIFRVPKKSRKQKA

Row | Compound | fold lower intracellular level (ABC2; 20% (vol/vol) undecane) | fold lower intracellular level (ABC3; 20% (vol/vol) undecane) | fold lower intracellular level (ABC2; 0.5% (vol/vol) decane) | fold lower intracellular level (ABC3; 0.5% (vol/vol) decane)
1 | CCCCCCCCCCC [undecane] | ~ 30 fold | ~ 30 fold |  | 
2 | CCCCCCCCCC [decane] |  |  | ~ 5 fold | ~ 5 fold

Reference: PMC3598725, “Transporter engineering for improved tolerance against alkane biofuels in Saccharomyces cerevisiae” (Biotechnology for Biofuels, 2013)
